Assay results from US10308959B2, “Methods, systems, and compositions relating to MiRNA-146a” (Henry Ford Health System, priority 2013, dated 2019).

Legend:
Format in all cases: cell-based
[1] = system: primary rat embryonic OPCs; assay: QrtPCR of mRNA (MBP, p38MAPK) in primary rat embryonic OPCs; conditions: for expression of MBP, mRNA and protein levels: in the presence of polymyxin B (50 μg/ml), 50 and 100 ng/ml, 4 days
Procedure: (§1) Primary rat embryonic OPCs were isolated and prepared according to the method known to the skilled artisan. Briefly, on embryonic day 17, rat embryos were removed from a pregnant Wistar rat in a laminar flow hood. The cortices were dissected out by using microdissecting scissors, rinsed twice in Hank's buffered salt solution and dissociated after digesting with 0.01% trypsin and DNase at 37° C. for 15 min. The digested cells were washed twice, filtered through a 70 mm nylon cell strainer and plated with DMEM containing 20% fetal bovine serum (FBS) in poly-D-lysine coated T75 cell culture flasks (approximately 10 million cells per flask). The cells grew to confluence for 10 days and then were placed on the shaker at 200 r.p.m. at 37° C. for 1 h to remove microglial cells. Subsequently, the cells were left on the shaker for an additional 18-20 h to collect OPCs. The collected OPCs were plated in untreated Petri dishes for 1 h to remove contaminated microglia and astrocytes which attach to the Petri dish more efficiently than OPCs. The unattached OPCs were transferred onto poly-D,L-ornithine-coated Petri dishes at a cell density of 10^4 per/cm2 with a basal chemically defined medium (“BDM”) containing 10 ng/ml platelet-derived growth factor-alpha (“PDGF-AA”) and 10 ng/ml basic fibroblast growth factor (“bFGF”) for 7-10 days.
(§2) The mouse primary cultures of OPCs were conditionally immortalized by transformation with a temperature-sensitive large T-antigen into a mouse OPC cell line-N20.1 (21). N20.1 cells were provided by Dr. Anthony Campagnoni (University of California at Los Angeles). N20.1 cells were grown and maintained in Dulbecco's modified Eagle's medium (“DMEM”)/F12 with 1% fetal bovine serum (“FBS”) and G418 (100 μg/ml) at 37° C. For N20.1 cells, transient transfections were performed with Nucleofector kit according to the manufacturer's protocol (Amaxa, Germany). The cells (10^6) were mixed with 1 μg plasmid DNA or 100 pmol of siRNA/oligo nucleotides and pulsed according to the manufacturer's instruction. […]

[2] = system: mouse OPC cell line-N20.1; assay: QrtPCR of mRNA (MBP, p38MAPK) in N20.1 cells; conditions: for expression of MBP, mRNA and protein levels: in the presence of polymyxin B (50 μg/ml), 50 and 100 ng/ml, 4 days
Procedure: The mouse primary cultures of OPCs were conditionally immortalized by transformation with a temperature-sensitive large T-antigen into a mouse OPC cell line-N20.1 (21). N20.1 cells were provided by Dr. Anthony Campagnoni (University of California at Los Angeles). N20.1 cells were grown and maintained in Dulbecco's modified Eagle's medium (“DMEM”)/F12 with 1% fetal bovine serum (“FBS”) and G418 (100 μg/ml) at 37° C. For N20.1 cells, transient transfections were performed with Nucleofector kit according to the manufacturer's protocol (Amaxa, Germany). The cells (10^6) were mixed with 1 μg plasmid DNA or 100 pmol of siRNA/oligo nucleotides and pulsed according to the manufacturer's instruction. The transfected cells were immediately plated into Petri dishes with DMEM containing 1% FBS and incubated at 37° C. for days. Primary rat embryonic OPCs were transiently transfected with Lipofectamine (Invitrogen) overnight, according to the manufacturer's protocol (see Chew et al., J. Neuroscience 30(33): 11011-11027 (2010)). Amounts of DNA and siRNA/oligo nucleotides were used as recommended by the manufacturer. The control plasmid (pcDNA3) was used as a mock transfected control for miR-146a expression vector transfection, and control siRNA (Ambion, a random mixture of oligonucleotides) was used as a mock transfected control for both transfections with Tβ4siRNA and anti-miR-146a inhibitor nucleotides. The cells (10^4 cells/cm^2) were treated with 0, 25, 50, 100 ng/ml of Tβ4 (RegeneRx Biopharmaceuticals Inc., Rockville, Md.). The cells were incubated at 37° C. and fed every 2 days with fresh medium (DMEM containing 1% FBS for N20.1 cells and BDM for primary rat embryonic OPCs) with and without Tβ4 for 4 days. […]
After qrtPCR, agarose gel electrophoresis was performed to verify the quality of the qrtPCR products. No secondary products were detected. […] Values obtained from three independent experiments were analyzed relative to gene expression data using the 2^−ΔΔCT method.

[3] = system: primary rat embryonic OPCs; assay: miR-146a quantification by qrtPCR in primary rat embryonic OPCs
Procedure: (§3) Primary rat embryonic OPCs were isolated and prepared according to the method known to the skilled artisan. Briefly, on embryonic day 17, rat embryos were removed from a pregnant Wistar rat in a laminar flow hood. The cortices were dissected out by using microdissecting scissors, rinsed twice in Hank's buffered salt solution and dissociated after digesting with 0.01% trypsin and DNase at 37° C. for 15 min. The digested cells were washed twice, filtered through a 70 mm nylon cell strainer and plated with DMEM containing 20% fetal bovine serum (FBS) in poly-D-lysine coated T75 cell culture flasks (approximately 10 million cells per flask). The cells grew to confluence for 10 days and then were placed on the shaker at 200 r.p.m. at 37° C. for 1 h to remove microglial cells. Subsequently, the cells were left on the shaker for an additional 18-20 h to collect OPCs. The collected OPCs were plated in untreated Petri dishes for 1 h to remove contaminated microglia and astrocytes which attach to the Petri dish more efficiently than OPCs. The unattached OPCs were transferred onto poly-D,L-ornithine-coated Petri dishes at a cell density of 10^4 per/cm2 with a basal chemically defined medium (“BDM”) containing 10 ng/ml platelet-derived growth factor-alpha (“PDGF-AA”) and 10 ng/ml basic fibroblast growth factor (“bFGF”) for 7-10 days. […]

[4] = system: mouse OPC cell line-N20.1; assay: miR-146a quantification by qrtPCR in N20.1 cells
Procedure: The mouse primary cultures of OPCs were conditionally immortalized by transformation with a temperature-sensitive large T-antigen into a mouse OPC cell line-N20.1 (21). N20.1 cells were provided by Dr. Anthony Campagnoni (University of California at Los Angeles). N20.1 cells were grown and maintained in Dulbecco's modified Eagle's medium (“DMEM”)/F12 with 1% fetal bovine serum (“FBS”) and G418 (100 μg/ml) at 37° C. For N20.1 cells, transient transfections were performed with Nucleofector kit according to the manufacturer's protocol (Amaxa, Germany). The cells (10^6) were mixed with 1 μg plasmid DNA or 100 pmol of siRNA/oligo nucleotides and pulsed according to the manufacturer's instruction. The transfected cells were immediately plated into Petri dishes with DMEM containing 1% FBS and incubated at 37° C. for days. Primary rat embryonic OPCs were transiently transfected with Lipofectamine (Invitrogen) overnight, according to the manufacturer's protocol (see Chew et al., J. Neuroscience 30(33): 11011-11027 (2010)). […]
The cDNA for each miR and TaqMan assay were performed in triplicate according to the manufacturer's protocol specified in Applied Biosystems ViiA™ 7 Real-Time PCR System (Applied Biosystem). […] Values obtained from three independent experiments were analyzed relative to gene expression data using the 2^−ΔΔCT method.

[5] = system: primary rat embryonic OPCs; assay: Western blot of MBP, TLR signaling mediators and MAPKs in primary rat embryonic OPCs
Procedure: as §1
The mouse primary cultures of OPCs were conditionally immortalized by transformation with a temperature-sensitive large T-antigen into a mouse OPC cell line-N20.1 (21). N20.1 cells were provided by Dr. Anthony Campagnoni (University of California at Los Angeles). N20.1 cells were grown and maintained in Dulbecco's modified Eagle's medium (“DMEM”)/F12 with 1% fetal bovine serum (“FBS”) and G418 (100 μg/ml) at 37° C. For N20.1 cells, transient transfections were performed with Nucleofector kit according to the manufacturer's protocol (Amaxa, Germany). The cells (10^6) were mixed with 1 μg plasmid DNA or 100 pmol of siRNA/oligo nucleotides and pulsed according to the manufacturer's instruction. The transfected cells were immediately plated into Petri dishes with DMEM containing 1% FBS and incubated at 37° C. for days. Primary rat embryonic OPCs were transiently transfected with Lipofectamine (Invitrogen) overnight, according to the manufacturer's protocol (see Chew et al., J. Neuroscience 30(33): 11011-11027 (2010)). Amounts of DNA and siRNA/oligo nucleotides were used as recommended by the manufacturer. The control plasmid (pcDNA3) was used as a mock transfected control for miR-146a expression vector transfection, and control siRNA (Ambion, a random mixture of oligonucleotides) was used as a mock transfected control for both transfections with Tβ4siRNA and anti-miR-146a inhibitor nucleotides. The cells (10^4 cells/cm^2) were treated with 0, 25, 50, 100 ng/ml of Tβ4 (RegeneRx Biopharmaceuticals Inc., Rockville, Md.). The cells were incubated at 37° C. and fed every 2 days with fresh medium (DMEM containing 1% FBS for N20.1 cells and BDM for primary rat embryonic OPCs) with and without Tβ4 for 4 days. To test for LPS contamination in Tβ4, the cells were cultured in the presence of the LPS inhibitor polymyxin B (50 μg/ml) followed by treatment with Tβ4. Tβ4 (100 ng/ml) was boiled for 10 minutes in order to denature Tβ4 protein and was used as a negative control. […]

[6] = system: mouse OPC cell line-N20.1; assay: Western blot of MBP, TLR signaling mediators and MAPKs in N20.1 cells
Procedure: The mouse primary cultures of OPCs were conditionally immortalized by transformation with a temperature-sensitive large T-antigen into a mouse OPC cell line-N20.1 (21). N20.1 cells were provided by Dr. Anthony Campagnoni (University of California at Los Angeles). N20.1 cells were grown and maintained in Dulbecco's modified Eagle's medium (“DMEM”)/F12 with 1% fetal bovine serum (“FBS”) and G418 (100 μg/ml) at 37° C. For N20.1 cells, transient transfections were performed with Nucleofector kit according to the manufacturer's protocol (Amaxa, Germany). The cells (10^6) were mixed with 1 μg plasmid DNA or 100 pmol of siRNA/oligo nucleotides and pulsed according to the manufacturer's instruction. The transfected cells were immediately plated into Petri dishes with DMEM containing 1% FBS and incubated at 37° C. for days. Primary rat embryonic OPCs were transiently transfected with Lipofectamine (Invitrogen) overnight, according to the manufacturer's protocol (see Chew et al., J. Neuroscience 30(33): 11011-11027 (2010)). Amounts of DNA and siRNA/oligo nucleotides were used as recommended by the manufacturer. The control plasmid (pcDNA3) was used as a mock transfected control for miR-146a expression vector transfection, and control siRNA (Ambion, a random mixture of oligonucleotides) was used as a mock transfected control for both transfections with Tβ4siRNA and anti-miR-146a inhibitor nucleotides. The cells (10^4 cells/cm^2) were treated with 0, 25, 50, 100 ng/ml of Tβ4 (RegeneRx Biopharmaceuticals Inc., Rockville, Md.). The cells were incubated at 37° C. and fed every 2 days with fresh medium (DMEM containing 1% FBS for N20.1 cells and BDM for primary rat embryonic OPCs) with and without Tβ4 for 4 days. To test for LPS contamination in Tβ4, the cells were cultured in the presence of the LPS inhibitor polymyxin B (50 μg/ml) followed by treatment with Tβ4. Tβ4 (100 ng/ml) was boiled for 10 minutes in order to denature Tβ4 protein and was used as a negative control. Transfected cells (2×10^4 cells/cm2) including mock transfected controls were treated with and without 100 ng/ml of Tβ4 (RegeneRx Biopharmaceuticals Inc., Rockville, Md.) for 4 days and fresh medium was provided at day 2 with/without Tβ4.
Total protein extracts from the cells were prepared, as known to the skilled artisan. The protein extracts were separated by sodium dodecyl sulfate-polyacrylamide gel electrophoresis for Western blot analysis. For Western blot analysis, rabbit antiserum for MBP (1:200; Dako, Carpinteria, Calif.), monoclonal antibodies (1:1000) for p38MAPK, phosphorylated p38MAPK, c-JUN, phosphorylated c-JUN (1:1000; Upstate, Charlottesville, Va., USA), rabbit polyclonal antibodies (1:1000) for JNK1 and phosphorylated JNK1 (Promega Corporation), goat polyclonal TLR2, rabbit polyclonal TLR4, mouse monoclonal IRAK1 antibodies (1:1000), rabbit polyclonal TRAF6 antibodies (1:1000) mouse monoclonal β-actin antibodies (1:5000; Santa Cruz Biotechnology) and mouse monoclonal α-tubulin antibodies (1:5000; Sigma) were used. Donkey anti-goat, anti-rabbit, and anti-mouse horseradish peroxidase (1:5000; Jackson ImmunoResearch Labs, West Grove, Pa., USA) were used as secondary antibodies. Each experiment was repeated at least three times. The protein bands were quantified based on histogram analysis relative to gel loading marker α-tubulin.

[7] = system: primary rat embryonic OPCs; assay: MBP immunofluorescence cell counting in primary rat embryonic OPCs; conditions: Tβ4 100 ng/ml where used; DAPI positive cells as total
Procedure: as §3

mouse N20.1 cells = assay: MBP immunofluorescence cell counting in N20.1 cells; conditions: Tβ4 100 ng/ml where used; DAPI positive cells as total
Procedure: as §2
Immunofluorescence staining was performed in N20.1 and primary rat embryonic OPC cells. These cells were fixed with 4% paraformaldehyde for 1 h, washed with PBS, blocked with 1% serum for 1 h and incubated with monoclonal antibodies of OPC marker—O4, (1:1000, Chemicon, Billerica, Mass., USA) and a polyclonal antibody against mature OL marker—MBP (1:200; Dako, Carpinteria, Calif.) at room temperature for one hour, rinsed with PBS and secondary antibodies labeled with cyanine fluorophore (Cy3—red fluorescence) for 1 h. The slides were counterstained with 4′,6-diamidino-2-phenylindole (DAPI—blue fluorescence) and examined under Fluorescent Illumination Microscope (Olympus IX71/IX51, Tokyo, Japan). […]

[8] = second miR named, sentence 'In contrast'

Substance	expression of MBP, mRNA and protein levels [1]	expression of MBP, mRNA and protein levels [2]	expression of miR-146a ([3]; Tβ4 0 to 100 ng/ml, 4 days)	miR-146a expression (data not shown) [3, 8]	expression of miR-146a ([4]; Tβ4 0 to 100 ng/ml, 4 days)	miR-146a expression (data not shown) [4, 8]	expression and phosphorylation of p38MAPK [5]	expression level of MBP (protein) [5]	expression levels of IRAK1 and TRAF6 [5]	expression of TLR2 and TLR4 [5]	phosphorylation of ERK1/2, JNK1 and c-Jun [5]	expression and phosphorylation of p38MAPK [6]	expression level of MBP (protein) [6]	expression levels of IRAK1 and TRAF6 [6]	expression of TLR2 and TLR4 [6]	phosphorylation of ERK1/2, JNK1 and c-Jun [6]	increase in mRNA MBP expression ([1]; Tβ4 100 ng/ml where used)	increase in mRNA MBP expression ([2]; Tβ4 100 ng/ml where used)	number of MBP positive OPCs [7]	number of MBP positive OPCs (mouse N20.1 cells)
boiled denatured Tβ4: Tβ4 (100 ng/ml) boiled for 10 minutes to denature the protein, used as a negative control (SDKPDMAEIEKFDKSKLKKTETQEKNPLPSKETIEQEKQAGES; heat-denatured; UniProt P62328 2-44, looked up) [reference compound]	no effect	no effect																		
thymosin beta 4 (SDKPDMAEIEKFDKSKLKKTETQEKNPLPSKETIEQEKQAGES; listed as Homo sapiens) [Tβ4]	induced	induced	increased in a dose dependent manner	no effect	increased in a dose dependent manner	no effect	induced	increased	markedly reduced	no effect	dose-dependently inhibited	induced	increased	markedly reduced	no effect	dose-dependently inhibited	two-fold increase	two-fold increase	significantly increased	significantly increased
